Experimental data reported in paper PMC3320797 (Chemical biology & drug design, 2010).
Entries after “also recorded” stand apart in the source; their conditions may differ. Read-outs that look alike come from different tables or passages of the source.

Key:
HIV-1 RT DNA polymerase [1] = target: T1, HIV-1 RT DNA polymerase (Human immunodeficiency virus type 1 group M subtype B, UniProt P04585); experiment: RT RNA-dependent DNA polymerase activity assay; format: biochemical; settings: read-out: Inhibition of RT DNA polymerase activity (IC50)
p15-EC RNH fragment [2] = target: T2, p15-EC RNH fragment (Human immunodeficiency virus type 1 group M subtype B, UniProt P04585, DELINS1094-1102[…]); experiment: RNH activity of p15-EC RNH domain fragment, rapid fluorescence assay; format: biochemical, HIV-1 / Escherichia coli chimera; settings: for IC50: read-out: Inhibition of the p15-EC RNH fragment (IC50), 2 mM Mn2+
[3] = target: p15-EC RNH domain fragment (Human immunodeficiency virus type 1 group M subtype B, UniProt P04585, DELINS1094-1102[…]); experiment: NMR 1H-15N HSQC chemical shift titration, dissociation constant; format: binding, HIV-1 / Escherichia coli chimera; settings: read-out: Inhibitor dissociation constant, KD
Aqueous solubility = format: physicochemical; settings: aqueous solution
HIV-1 RT DNA polymerase [4] = target: T1, HIV-1 RT DNA polymerase; settings: read-out: Inhibition of RT DNA polymerase activity (IC50); ref [20]; cited from earlier work
p15-EC RNH fragment [5] = target: T2, p15-EC RNH fragment; settings: read-out: Inhibition of the p15-EC RNH fragment (IC50); ref [20]; cited from earlier work
HIV-1 = settings: ref [21], [22]; cited from earlier work

Which IC50 (HIV-1 RT DNA polymerase [1]) does the source give for `O=C(O)c1ccc(-c2cccc(/C=N/NC(=O)c3cc(O)c(O)c(O)c3)c2)cc1` [BHMP07] here?
The IC50 was 0.3 ± 0.2 µM.

And the IC50 (p15-EC RNH fragment [2])?
Its IC50 is 0.8 ± 0.06 µM.

What about the Kd ([3]; residue A76 (502), + 20 mM Mg2+) of the same molecule?
The Kd was 311 ± 41.5 µM.

What about the Kd ([3]; residue A76 (502), no Mg2+) of the same molecule?
Its Kd is 192 ± 28.9 µM.

What about the Kd ([3]; residue I79 (505), + 20 mM Mg2+) of the same molecule?
The Kd was 372 ± 60.2 µM.

And the Kd ([3]; residue I79 (505), no Mg2+)?
The Kd was 212 ± 20.1 µM.

What about the Kd ([3]; residue I114 (526), + 20 mM Mg2+) of the same molecule?
The Kd was 321 ± 26.2 µM.

And the Kd ([3]; residue I114 (526), no Mg2+)?
The Kd was 217 ± 38.4 µM.

And the Kd ([3]; residue K93, + 20 mM Mg2+)?
Its Kd is 454 ± 151 µM.

And the Kd ([3]; residue K93, no Mg2+)?
Its Kd is 194 ± 18.3 µM.

What about the Kd ([3]; residue Q74 (500), + 20 mM Mg2+) of the same molecule?
Its Kd is 246 ± 72.8 µM.

And the Kd ([3]; residue V124 (536), no Mg2+)?
The Kd was 242 ± 18.2 µM.

And the Kd ([3]; residue Y75 (501), + 20 mM Mg2+)?
Its Kd is 262 ± 135 µM.

And the “Aqueous solubility relative to DHBNH” value (Aqueous solubility)?
Its value is “higher aqueous solubility than DHBNH; also recorded: more soluble in aqueous solution than the naphthyl-based DHBNH”.

And the “Solubility at the levels used in the NMR studies” value (Aqueous solubility; inhibitor up to 0.8 mM, overnight incubation)?
Its value is “not likely completely soluble in aqueous solution”.

With `COc1ccc2ccccc2c1/C=N/NC(=O)c1ccc(O)c(O)c1` [DHBNH, dihydroxy benzoyl naphthyl hydrazone] as the molecule, how does the IC50 (HIV-1 RT DNA polymerase [4]) read?
The IC50 was greater than 25 µM.

What about the IC50 (p15-EC RNH fragment [5]) of the same molecule?
Its IC50 is 18.5 ± 3.4 µM.

For `CC(C)c1ccc(O)c(=O)c(O)c1` [β-thujaplicinol], which Antiviral activity (HIV-1) is on record?
Its Antiviral activity is “neither of these compounds has antiviral activity”.

Which results are given for `O=C(O)c1ccc(-c2cccc(/C=N/NC(=O)c3ccc(O)c(O)c3)c2)cc1` [BHMP03]?
IC50 (HIV-1 RT DNA polymerase [1]): > 50 µM; Ratio of p15-EC RNH IC50 relative to BHMP07 (p15-EC RNH fragment [2]; IC50 of BHMP03 versus BHMP07): more than 50 times; IC50 (p15-EC RNH fragment [2]): > 50 µM; Aqueous solubility relative to DHBNH (Aqueous solubility): more soluble in aqueous solution than the naphthyl-based DHBNH
